From patent publication US20260234115A1, “LIPID COMPOUNDS, COMPOSITIONS, AND USES THEREOF” (Liberate Bio, Inc., priority 2023, published 2026)
Marks after values point to notes of the source that are not given here.

Tests used:
mouse organs = assay: In vivo activity screening in mice: organ mean total flux (p/s) of luciferase activity after injection of F2 LNP pools (Table 6, FIG. 7A-7C); settings: luciferase mRNA
In short: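 C57BL/6J mice given one tail-vein injection of pooled Formulation F2 LNPs carrying firefly luciferase mRNA (0.25-3 mg/kg) in PBS. At 4-6 h, s.c. D-luciferin given; organs imaged ex vivo by IVIS within 10-15 min, after saline cardiac perfusion. Mean total flux (p/s) per organ ROI.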

[1] = Plate-based fluorescence (RiboGreen) assay: nucleic acid cargo content and encapsulation efficiency of LNPs; format: physicochemical; settings: for EE (%) N/P:6: LNP
Description: (§1) Lipids and active ingredients (e.g., RNA, DNA, etc.) were assembled into LNPs using microfluidic mixing. An ethanol phase was prepared by solubilizing ionizable lipids (i.e., lipid compounds), phospholipids (e.g., DSPC), cholesterol, and PEG lipids in ethanol, at predetermined mol % ratios given in Table 2. An aqueous phase was prepared by diluting a nucleic acid cargo (e.g., firefly luciferase mRNA) in an acidified buffer (pH 4.0 citrate buffer, 50 mM). A chip with microfluidic mixing architecture (e.g., toroidal mixer) was used to mix the two phases at predetermined flow rate ratios (e.g., 9 ml/min for the aqueous phase and 3 ml/min for the ethanol phase). Resulting LNPs comprising the lipids and encapsulating the nucleic acid cargo were dialyzed against PBS pH 7.4 for 2 hours at room temperature in a 20 kDa MWCO dialysis membrane. Then, PBS was refreshed to continue dialysis overnight at 2-8 TC. Upon completion of the buffer exchange, LNPs were optionally concentrated using a ultracentrifugal unit with a 10-100 kDa MWCO membrane.
c. Plate-Based Fluorescence (RiboGreen) Assay
Nucleic acid cargos in the LNPs were quantified by RiboGreen assay, against a nucleic acid standard curve. LNPs encapsulating nucleic acid cargo were mixed with 1× Tris-EDTA (TE) and 2% triton in TE, separately, to achieve dilutions required by the assay. Then, the samples were heated at 30° C. and vortexed at 300 rpm. Samples were plated into 96-well plates and RiboGreen reagent was added into each well. Following incubation in the dark, fluorescence was measured from the wells, and plotted against the standard curve. Nucleic acid concentration obtained from the Triton-treated samples were used for total cargo concentration quantification. Only TE diluted sample fluorescence values were used to determine the non-encapsulated (free) cargo, and their ratio was used to determine the encapsulation efficiency (EE %).

[2] = Dynamic light scattering: LNP particle size and PDI; format: physicochemical; settings: for PDI N/P:6 / Size (nm) N/P:6: LNP
Description: as §1
d. Dynamic Light Scattering
LNPs were diluted with PBS pH 7.4 to predetermined dilution ranges based on the process step and LNP concentration. Following mixing, the particle size and PDI were measured by a dynamic light scattering instrument.

[3] = LNP compositions for in vivo mouse study, four formulations (F1-F4) pooled, or pools of four compounds
[4] = LNP compositions for in vivo mouse study, four formulations (F1-F4) of the lipid compound pooled, or pools of four compounds (sixteen compositions)
[5] = LNP compositions for Formulation F2 Study

Structure (SMILES)	Organ Mean Total Flux Femur (mouse organs; Mouse 1, dose 0.3 mg/kg)	Organ Mean Total Flux Heart (mouse organs; Mouse 1, dose 0.3 mg/kg)	Organ Mean Total Flux Kidney (mouse organs; Mouse 1, dose 0.3 mg/kg)	Organ Mean Total Flux Liver (mouse organs; Mouse 1, dose 0.3 mg/kg)	Organ Mean Total Flux Lung (mouse organs; Mouse 1, dose 0.3 mg/kg)	Organ Mean Total Flux Muscle (mouse organs; Mouse 1, dose 0.3 mg/kg)	Organ Mean Total Flux Pancreas (mouse organs; Mouse 1, dose 0.3 mg/kg)	Organ Mean Total Flux Spleen (mouse organs; Mouse 1, dose 0.3 mg/kg)	EE % [1, 3] [%]	mRNA Content [1, 3] [µg/mL]	EE (%) N/P:6 ([1]; Formulation F1, N/P 6) [%]	EE (%) N/P:6 ([1]; Formulation F2, N/P 6) [%]	EE (%) N/P:6 ([1]; Formulation F3, N/P 6) [%]	EE (%) N/P:6 ([1]; Formulation F4, N/P 6) [%]	Particle Size (nm) [2, 4] [nm]	PDI [2, 3]	PDI N/P:6 ([2]; Formulation F1, N/P 6)	Size (nm) N/P:6 ([2]; Formulation F1, N/P 6) [nm]	PDI N/P:6 ([2]; Formulation F2, N/P 6)	Size (nm) N/P:6 ([2]; Formulation F2, N/P 6) [nm]	other results
CCCCC/C=C\CCOC(=O)CCCCCCC(=O)OCC(COC(=O)CCCCCCC(=O)OCC/C=C\CCCCC)(COC(=O)CCC(CCCCCC)OC(=O)NCCN1CCCC1)COC(=O)CCC(OCCCCCCCC)OCCCCCCCC (centres unmarked) [Compound 12, O8-[2-(4,4-dioctoxybutanoyloxymethyl)-2-[[8-[(Z)-non-3-enoxy]-8-oxo-octanoyl]oxymethyl]-3-[4-(2-pyrrolidin-1-ylethylcarbamoyloxy)decanoyloxy]propyl]O1-[(Z)-non-3-enyl]octanedioate]	1.3 p/s (×10^6)	0.1 p/s (×10^6)	0.2 p/s (×10^6)	61.8 p/s (×10^6)	0.7 p/s (×10^6)	2.7 p/s (×10^6)	0.2 p/s (×10^6)	0.7 p/s (×10^6)	97	91	98	98	97	98	83.7	0.119	0.16	81 ± 9	0.07	84 ± 5	PDI N/P:6 ([2]; Formulation F3, N/P 6): 0.04; Size (nm) N/P:6 ([2]; Formulation F3, N/P 6): 93 ± 1 nm; PDI N/P:6 ([2]; Formulation F4, N/P 6): 0.09; Size (nm) N/P:6 ([2]; Formulation F4, N/P 6): 63 ± 0 nm
CCCCC/C=C\CCOC(=O)CCCCCC(=O)OCC(COC(=O)CCCCCC(=O)OCC/C=C\CCCCC)(COC(=O)CCCCCC(=O)OCC/C=C\CCCCC)COC(=O)CCC(CCCCCC)OC(=O)NCCN1CCCC1 (centres unmarked) [Compound 7, O7-[2,2-bis[[7-[(Z)-non-3-enoxy]-7-oxo-heptanoyl]oxymethyl]-3-[4-(2-pyrrolidin-1-ylethylcarbamoyloxy)decanoyloxy]propyl]O1-[(Z)-non-3-enyl]heptanedioate]	2.4 p/s (×10^6)	0.2 p/s (×10^6)	0.7 p/s (×10^6)	140.0 p/s (×10^6)	4.9 p/s (×10^6)	2.5 p/s (×10^6)	1.8 p/s (×10^6)	29.0 p/s (×10^6)	96	84	99	97	98	98	89.3	0.14	0.08	75 ± 1	0.11	97 ± 5	Organ Mean Total Flux Femur (mouse organs; Mouse 14, dose 0.5 mg/kg): 5.7 p/s (×10^6); Organ Mean Total Flux Heart (mouse organs; Mouse 14, dose 0.5 mg/kg): 0.9 p/s (×10^6); Organ Mean Total Flux Kidney (mouse organs; Mouse 14, dose 0.5 mg/kg): 3.2 p/s (×10^6); Organ Mean Total Flux Liver (mouse organs; Mouse 14, dose 0.5 mg/kg): 338.0 p/s (×10^6); Organ Mean Total Flux Lung (mouse organs; Mouse 14, dose 0.5 mg/kg): 14.5 p/s (×10^6); Organ Mean Total Flux Muscle (mouse organs; Mouse 14, dose 0.5 mg/kg): 48.2 p/s (×10^6); Organ Mean Total Flux Pancreas (mouse organs; Mouse 14, dose 0.5 mg/kg): 1.5 p/s (×10^6); Organ Mean Total Flux Spleen (mouse organs; Mouse 14, dose 0.5 mg/kg): 11.8 p/s (×10^6); EE % [1, 5]: 98%; PDI [2, 5]: 0.086; Particle Size (nm) [2, 5]: 120.8 nm; PDI N/P:6 ([2]; Formulation F3, N/P 6): 0.09; Size (nm) N/P:6 ([2]; Formulation F3, N/P 6): 99 ± 2 nm; PDI N/P:6 ([2]; Formulation F4, N/P 6): 0.21; Size (nm) N/P:6 ([2]; Formulation F4, N/P 6): 75 ± 3 nm
